Experiments:
[1] = Body weight after icv CoPP in rats; assay type: in vivo, rat; details: 48 hours after icv injection, 6 animals per group
Procedure: All animal handling was approved by and done in accordance with the guidelines and requirements of the University of Vermont Institutional Animal Care Use Committee. Adult male Sprague-Dawley rats (mycoplasma free; 200 g) were purchased from Charles River (Quebec, Canada) and housed in an air-conditioned (23+1° C.) room with lights on for 12 hours daily (starting at 6:00 a.m.) in the University of Vermont Animal Facility. Rats were housed singly in regular cages with free access to Purina Rat Chow (RMH 3000) and water for at least five days prior to surgery. Stereotactic surgery was used to implant chronic indwelling stainless steel cannulae into the third ventricle of the brain under fentanyl/droperidol anesthesia. Coordinates for cannula placement were obtained from the Konig Klippel stereotactic surgery atlas; with the nose bar 2.4 mm below the intraaural line and the vertical micrometer gantry tilted 9 degrees towards the animal, the coordinates were 4.9 mm dorsal to the intraaural line, 5 mm anterior to the intraaural line and 1.1 mm lateral to the midline. A minimum of 5 days later, animals were injected icv with CoPP (which was dissolved in 0.2 N NaOH and the pH adjusted to 7.4-7.8) or other experimental compounds. […] Because of the repetitive dosing regimens, animals were trained for six days prior to the first injection to ready them for injections without anesthesia. […]

[2] = system: 11G2L (creatine transporter mRNA); assay: Northern blot of 11G2L in hypothalamic RNA; assay type: in vivo, rat
Procedure: Northern Blots were used to confirm the results we obtained from the differential display. Six additional rats from each group (saline, CoPP, and fasted) were used in Northern Blot experiments. Total RNA (15 ug) extracted from the hypothalami of these rats was loaded on 1.3% formaldehyde-agarose gels. After 3.5 hours running at 56V, the gels were transferred to Hybrond-N+ membrane (Amersham, Piscataway, N.J.). The cloning inserts were released from PCR-TRAP Vectors by PCR amplification and then gel-purified with the Wizard®DNA Clean-up System (Promega). The inserts were labeled with [alpha^32P]dCTP (Perkin Elmer) using a random primers DNA labeling kit (Invitrogen, San Diego, Calif.). Labeled probe (25 ng) was denatured and then hybridized with a membrane which had been pre-incubated for 15 min in 15 ml Rapidhyb buffer (Amersham) in a Roller-Blot Hybridizer (Techne HB-3D, Cambridge, UK) for 1 hour. After washing under different stringencies, depending on the probes used, the membranes were exposed overnight to film. The autoradiographs were scanned using a GS-700 imaging densitometer (BioRad, Inc., Hercules, Calif.) and analyzed using Quantity One software (BioRad). A series of primer sets were designed using available sequences for inserts or for related mRNA cds.

SMILES: C=Cc1c(C)c2cc3[nH]c(cc4nc(cc5nc(cc1[nH]2)C(C)=C5CCC(=O)[O-])C(CCC(=O)[O-])=C4C)c(C)c3C=C.[Co+2] [CoPP, Cobaltic protoporphyrin IX]
- Δ Weight [1]: −29%
- increase of 11G2L expression compared to vehicle-treated animals (fed or fasted) ([2]; Northern densitometry normalized to L32, p<0.02): approximately 20%
- Northern Blot Densitometry of 11G2L ([2]; hypothalamus, 48 hours after icv, normalized to L32 mRNA): 1.023±* arbitrary units

Source: patent US20090305225A1, “Inhibition of Creatine Uptake to Promote Weight Loss” (priority 2005, published 2009)
